PubChem BioAssay (NCI)
Where “and” joins values, the source holds several entries; their conditions need not be identical. Equal entries are not always repeated.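 Tested at 5 concentrations; 48 h exposure; 96-well plates; endpoints linearly interpolated, else capped at highest concentration. Abbreviation: GI50, concentration required for 50% inhibition of growth. TGI is the concentration that stops growth completely.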

Assays:
Assay in all cases: growth of human tumour cells (NCI), 48 h
HS 578T breast = tested on: HS 578T breast
IGROV1 ovarian = tested on: IGROV1 ovarian
SF-539 CNS = tested on: SF-539 CNS
M14 melanoma = tested on: M14 melanoma
SW-620 colon = tested on: SW-620 colon
SF-268 CNS = tested on: SF-268 CNS
NCI-H460 lung = tested on: NCI-H460 lung
786-0 renal = tested on: 786-0 renal
HOP-92 NSCLC = tested on: HOP-92 NSCLC
T-47D breast = tested on: T-47D breast

SMILES	GI50 (HS 578T breast)	TGI (HS 578T breast)	GI50 (IGROV1 ovarian)	TGI (IGROV1 ovarian)	GI50 (SF-539 CNS)	TGI (SF-539 CNS)	GI50 (M14 melanoma)	TGI (M14 melanoma)	GI50 (SW-620 colon)	TGI (SW-620 colon)	GI50 (SF-268 CNS)	TGI (SF-268 CNS)	GI50 (NCI-H460 lung)	TGI (NCI-H460 lung)	GI50 (786-0 renal)	TGI (786-0 renal)	GI50 (HOP-92 NSCLC)	TGI (HOP-92 NSCLC)	GI50 (T-47D breast)	TGI (T-47D breast)
COc1cc2c(cc1O)c(=O)n(CCN(C)C)c1c3cc4c(cc3ncc21)OCO4	0.366 µM	26.1 µM	0.0417 µM	8.2 µM	< 0.01 µM	0.0223 µM	< 0.01 µM	0.0535 µM	< 0.01 µM	> 33.2 µM	< 0.01 µM	19.9 µM	< 0.01 µM	0.329 µM	< 0.01 µM	0.0291 µM	0.0325 µM	0.455 µM	< 0.01 µM	0.0631 µM
CC(C)=Cc1cccc2[nH]c(O)c(N=Nc3ccc(S(N)(=O)=O)cc3)c12	0.506 µM	16.4 µM	> 25 µM	> 25 µM	2.72 µM	> 20.1 µM	> 25 µM	> 25 µM	1.14 µM	> 25 µM	12.4 µM	> 25 µM	1.32 µM	> 20.5 µM	9.07 µM	> 25 µM	6.57 µM	> 25 µM	> 25 µM	> 25 µM
COc1ccc(-c2cc(-c3ccc(OC)cc3)nc(NCCCNc3ccnc4cc(Cl)ccc34)n2)cc1	14.9 µM	44.8 µM	1.51 µM	3.12 µM	7.16 µM	21.4 µM	1.74 µM	3.28 µM	1.69 µM	3.34 µM	1.65 µM	3.3 µM	1.77 µM	3.32 µM	1.62 µM	2.99 µM	1.24 µM	2.64 µM	1.66 µM	3.9 µM
CC[C@H]1CCC/C=C/[C@@H]2C[C@H](O)C[C@H]2[C@H](O)/C=C/C(=O)O1	–	> 100 µM	0.152 µM	> 100 µM	0.06 µM	> 100 µM	0.0376 µM	> 100 µM	0.0313 µM	0.517 µM	0.0403 µM	> 100 µM	0.107 µM	> 100 µM	0.0204 µM	0.042 µM	0.157 µM	> 100 µM	0.0636 µM	0.263 µM
CCN1C(=O)N(CC)C2C1NN=c1s/c(=C\c3ccc(C(F)(F)F)cc3)c(=O)n12 (centres undefined)	0.349 µM	> 42.5 µM	0.576 µM	33.1 µM	0.247 µM	0.785 µM	0.311 µM	> 36.1 µM	0.406 µM	> 42.2 µM	1.03 µM	> 41 µM	0.365 µM	10.9 µM	1.23 µM	> 39 µM	2.2 µM	35.9 µM	0.36 µM	71.3 µM
FC(F)(F)c1nc(SCc2ccc(Cl)cc2)n[nH]1	–	> 100 µM	–	> 100 µM	–	> 100 µM	–	> 100 µM	–	> 100 µM	–	> 100 µM	–	> 100 µM	–	> 100 µM	–	> 100 µM	–	> 100 µM
NNc1nc2ccccc2o1	–	> 100 µM	–	> 100 µM	–	> 100 µM	–	> 100 µM	–	> 100 µM	–	> 100 µM	–	> 100 µM	–	> 100 µM	–	> 100 µM	–	> 100 µM
CC[C@]12C=CCN3CC[C@@]4(c5ccc(OC)cc5N(C)[C@H]4[C@@](O)(C(=O)OC)[C@@H]1OC(=O)CCC(=O)O[C@H]1CC[C@H]4[C@@H]5CC[C@H]6CC(=O)CC[C@]6(C)[C@H]5CC[C@]14C)[C@@H]32	3.65 µM	> 100 µM	3.17 µM	> 100 µM	3.89 µM	> 100 µM	2 µM	22.2 µM	3.05 µM	13.2 µM	4.81 µM	> 100 µM	2.76 µM	10.6 µM	1.97 µM	> 100 µM	1.83 µM	9.72 µM	2.1 µM	29.7 µM
O=c1cc(-c2ccccc2)oc2c1ccc1ccccc12	23.4 µM	83.2 µM	14.1 µM	55.8 µM	18.6 µM	76.1 µM	61.1 µM	> 100 µM	49.2 µM	> 100 µM	37.3 µM	> 100 µM	28.6 µM	> 100 µM	27.9 µM	> 100 µM	9.25 µM	45.5 µM	23.9 µM	> 100 µM
Fc1ccc(-c2ncn(CCCN3CCOCC3)c2-c2ccncc2)cc1	> 25 µM	> 25 µM	> 25 µM	> 25 µM	> 25 µM	> 25 µM	> 25 µM	> 25 µM	> 25 µM	> 25 µM	> 25 µM	> 25 µM	> 25 µM	> 25 µM	> 25 µM	> 25 µM	> 25 µM	> 25 µM	> 25 µM	> 25 µM
C#Cc1cccc(NC(=O)c2cccc(NC(=O)CCl)c2)c1	17.4 µM	76.2 µM	5.79 µM	19.1 µM	13 µM	24.5 µM	32.2 µM	> 82.5 µM	4.55 µM	17 µM	23 µM	> 82.5 µM	5.49 µM	20 µM	14.2 µM	28.1 µM	14.7 µM	34.6 µM	30.2 µM	> 82.5 µM
Cc1ccc2[nH]c(O)c(N=Nc3ccccc3[N+](=O)[O-])c2c1	–	28.9 µM	–	20 µM	–	4.78 µM	–	> 100 µM	–	> 100 µM	–	> 29.4 µM	–	> 100 µM	–	3.6 µM	–	6.55 µM	–	14 µM
O=C(O)CN1C(=O)CN=C(c2ccccn2)c2cc(Cl)ccc21	–	> 100 µM	–	> 100 µM	–	> 100 µM	–	> 100 µM	–	> 100 µM	–	> 100 µM	–	> 100 µM	–	> 100 µM	–	> 100 µM	–	> 100 µM
O=C(Nc1ccccc1Cl)c1ccc(NC2=C(Cl)C(=O)N(C3CCCCC3)C2=O)cc1	6.75 µM	133 µM	6.87 µM	23.3 µM	27.3 µM	58.5 µM	11.7 µM	42.1 µM	10.3 µM	30.2 µM	20.2 µM	52.9 µM	19.7 µM	52.1 µM	9.64 µM	30.2 µM	17.4 µM	42.2 µM	6.41 µM	34.8 µM
O=C(Nc1n[nH]c2nc(-c3ccc(O)cc3)c(Br)cc12)C1CC1	4.15 µM	21.6 µM	5.75 µM	> 20.6 µM	1.34 µM	6.27 µM	3.97 µM	11.3 µM	4.36 µM	> 25 µM	4.74 µM	16.5 µM	1.89 µM	> 20.1 µM	4.55 µM	14.3 µM	8.66 µM	18.3 µM	3.81 µM	14.5 µM
O=C(Nc1cn[nH]c1-c1nc2ccc(CN3CCOCC3)cc2[nH]1)NC1CC1	0.118 µM and 0.125 µM	0.717 µM and 0.681 µM	2.75 µM and 2.67 µM	19.8 µM and > 10 µM	0.262 µM and 0.688 µM	1.35 µM and 3.7 µM	1.52 µM and 4.84 µM	4.34 µM and > 10 µM	0.573 µM and 1.32 µM	11.5 µM and > 10 µM	0.344 µM and 1.84 µM	2.44 µM and > 10 µM	1.78 µM and 7.25 µM	10.5 µM and > 10 µM	1.06 µM and 1.67 µM	7.68 µM and > 10 µM	0.365 µM and 1.06 µM	2.6 µM and 8.8 µM	1.82 µM and 9.18 µM	6.95 µM and > 10 µM
O=C1/C(=C/c2ccc(F)cc2)CN(C(=O)C(Cl)Cl)C/C1=C\c1ccc(F)cc1	0.325 µM	1.37 µM	0.188 µM	0.41 µM	0.269 µM	0.791 µM	0.249 µM	0.758 µM	0.0365 µM	0.119 µM	0.328 µM	1.47 µM	0.294 µM	0.878 µM	0.213 µM	0.499 µM	1.31 µM	3.13 µM	0.702 µM	3.6 µM
CC1OC(CC(=O)O)Cc2c1c(O)c1c(O)cc(-c3cc(=O)c4c(=O)c5c(c(=O)c=4c3=O)CC(CC(=O)O)OC5C)c(O)c1c2O (centres undefined)	38.3 µM	–	–	> 86.3 µM	59.3 µM	36 µM	24.4 µM	32 µM and 75.9 µM	22 µM	22.5 µM	47.8 µM	> 100 µM	35 µM	> 100 µM	32.1 µM	46.7 µM	–	41.3 µM	30 µM	–
O=c1oc2ccc(Cl)cc2c(=O)n1-c1ccc(F)cc1F	1.55 µM	7.66 µM	1.74 µM	> 100 µM	1.68 µM	8.67 µM	0.558 µM	5.03 µM	3.12 µM	16.9 µM	2.21 µM	15.8 µM	2.2 µM	11.5 µM	3.07 µM	10.5 µM	–	0.176 µM	1.08 µM	5.27 µM
CCN(CCO)CCCC(C)Nc1ccnc2cc(Cl)ccc12 (centres undefined)	> 100 µM	> 100 µM	> 100 µM	> 100 µM	8.63 µM	> 100 µM	> 100 µM	> 100 µM	> 100 µM	> 100 µM	> 100 µM	> 100 µM	> 100 µM	> 100 µM	> 100 µM	> 100 µM	> 100 µM	> 100 µM	> 100 µM	> 100 µM
COc1ccc(CNCCCN2C(=O)c3ccc4c5c(ccc(c35)C2=O)C(=O)N(CCCNCc2ccc(OC)c(OC)c2OC)C4=O)c(OC)c1OC	0.568 µM	3.15 µM	0.0795 µM	0.189 µM	0.102 µM	0.235 µM	0.0855 µM	0.162 µM	0.0932 µM	0.225 µM	0.117 µM	0.353 µM	0.121 µM	0.336 µM	0.333 µM	1.02 µM	0.108 µM	0.328 µM	0.0983 µM	0.213 µM
C/C(CC(C)(C)N1CC1)=N\NC(=O)Nc1cccc2ccccc12	2.45 µM	24.7 µM	4.19 µM	36.9 µM	3.35 µM	15.7 µM	4.25 µM	15.2 µM	2.89 µM	12.4 µM	3.72 µM	16.2 µM	2.86 µM	10 µM	3.04 µM	9.87 µM	1.65 µM	6.99 µM	4.35 µM	17.3 µM
CC1(C)N=c2cc3c(cc2N1c1ccc(Cl)cc1)=Nc1ccccc1N3c1ccc(Cl)cc1	12.2 µM	> 100 µM	13.4 µM	> 100 µM	8.97 µM	> 100 µM	9.32 µM	> 100 µM	4.68 µM	21.9 µM	7.56 µM	> 100 µM	4.78 µM	> 100 µM	9.66 µM	> 100 µM	1.57 µM	6.59 µM	3.91 µM	> 100 µM
COC(=O)C1=C(C(=O)ON)[C@@H]2C=C[C@@]1([C@@H](Cc1ccccc1)Nc1ccccc1)O2	19.5 µM	68.7 µM	2.03 µM	4.01 µM	15.5 µM	29 µM	1.87 µM	3.89 µM	1.8 µM	3.51 µM	14 µM	28.5 µM	16.6 µM	32.4 µM	1.85 µM	3.57 µM	1.5 µM	2.88 µM	1.61 µM	4.17 µM
FC(F)(F)c1cc(NC(=S)N2c3ccccc3-n3cccc3C2c2cccnc2)cc(C(F)(F)F)c1 (centres undefined)	12.5 µM	40.6 µM	8.76 µM	22.9 µM	14.7 µM	37.4 µM	11.3 µM	28.2 µM	4.31 µM	19.6 µM	9.91 µM	28.5 µM	10.5 µM	23.4 µM	5.31 µM	18.7 µM	2.93 µM	7.87 µM	3.89 µM	26.2 µM
O=C1OC(c2ccc(Cl)cc2)=N/C1=C\c1ccccc1	–	> 100 µM	–	> 100 µM	–	> 100 µM	–	> 100 µM	–	> 100 µM	–	> 100 µM	–	> 100 µM	–	> 100 µM	–	> 100 µM	–	> 100 µM
